Laboratory results published in patent publication US8158628B2, “Sulfonylated 1,2,3,4-tetrahydropyrrolo[1,2-a]pyrazine compounds and their use as pharmaceuticals” (Gruenenthal GmbH, priority 2009, dated 2012).

Columns and labels:
human B1R = molecular target: T1, human B1R (Homo sapiens, UniProt P46663); test: FLIPR Ca2+ functional assay, B1R antagonism, human B1R in CHO K1 cells; type: cell-based; settings: test substance 10 μM; hB1R CHO K1 cells; agonist Lys-Des-Arg9 bradykinin at EC80; % of maximum achievable inhibition
T1 construct: expressed in transfected cells; host or cells: CHO K1 cells (Chinese hamster ovary), stably transfected
T1 sequence (P46663 1-353): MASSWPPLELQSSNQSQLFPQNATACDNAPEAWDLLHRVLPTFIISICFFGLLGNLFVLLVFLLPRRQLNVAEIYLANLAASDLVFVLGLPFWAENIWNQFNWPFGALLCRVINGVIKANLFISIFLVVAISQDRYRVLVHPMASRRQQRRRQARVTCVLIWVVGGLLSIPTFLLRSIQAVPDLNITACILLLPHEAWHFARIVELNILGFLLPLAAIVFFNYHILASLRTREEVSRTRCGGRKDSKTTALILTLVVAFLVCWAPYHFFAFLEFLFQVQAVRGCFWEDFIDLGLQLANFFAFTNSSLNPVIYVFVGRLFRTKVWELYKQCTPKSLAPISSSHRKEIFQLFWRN
Summary of the method: (§1)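 IC50 values come from varied compound concentrations applied 10-20 min before an EC80 agonist challenge, with Des-Arg9 bradykinin for rat and Lys-Des-Arg9 bradykinin for human receptor. Ca2+ influx in Fluo-4-loaded CHO K1 transfectants was measured by FLIPR peak fluorescence. Data are % inhibition vs maximum, n=2-3, N>=2.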

B1R of the rat = molecular target: T2, B1R of the rat (Rattus norvegicus, UniProt P97583); test: FLIPR Ca2+ functional assay, B1R antagonism, rat B1R in CHO K1 cells; type: cell-based; settings: test substance 10 μM; rB1R CHO K1 cells; agonist Des-Arg9 bradykinin at EC80; % of maximum achievable inhibition
T2 construct: expressed in transfected cells; host or cells: CHO K1 cells (Chinese hamster ovary), stably transfected
T2 sequence (P97583 1-337): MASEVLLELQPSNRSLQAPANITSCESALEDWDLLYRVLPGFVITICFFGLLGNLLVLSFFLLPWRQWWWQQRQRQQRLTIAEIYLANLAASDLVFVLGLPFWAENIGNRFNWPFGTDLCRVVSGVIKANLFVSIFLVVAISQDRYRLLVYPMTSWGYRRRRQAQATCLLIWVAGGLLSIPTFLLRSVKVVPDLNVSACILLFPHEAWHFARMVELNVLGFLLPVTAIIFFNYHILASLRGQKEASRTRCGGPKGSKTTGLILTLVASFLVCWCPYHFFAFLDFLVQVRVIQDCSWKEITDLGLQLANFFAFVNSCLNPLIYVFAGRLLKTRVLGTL
Summary of the method: as §1

Row | SMILES | inhibition at 10 µM (human B1R) [%] | inhibition at 10 µM (B1R of the rat) [%]
1 | Cc1ccc(S(=O)(=O)N2CCn3cccc3C2CC(=O)NC2CCCc3cc(CNCc4ccccc4)ccc32)cc1 (centres unmarked) [Example 127, N-[6-[(Benzylamino)-methyl]-1,2,3,4-tetrahydro-naphthalen-1-yl]-2-[2-(p-tolylsulfonyl)-1,2,3,4-tetrahydro-pyrrolo[1,2-a]pyrazin-1-yl]-acetamide] | 97.4 | 101
2 | CN1CCN(Cc2ccc3c(c2)CCC(NC(=O)CC2c4cccn4CCN2S(=O)(=O)c2cccc(C(F)(F)F)c2)C3)CC1 (centres unmarked) [Example 68, N-[6-[(4-Methyl-piperazin-1-yl)-methyl]-1,2,3,4-tetrahydro-naphthalen-2-yl]-2-[2-[[3-(trifluoromethyl)phenyl]sulfonyl]-1,2,3,4-tetrahydro-pyrrolo[1,2-a]pyrazin-1-yl]-acetamide] | 99.7 | 98.9
3 | COc1cc(C)c(S(=O)(=O)N2CCn3cccc3C2CC(=O)N2CCC3(CCN(C4CC4)C3)C2)c(C)c1 (centres unmarked) [Example 3, 1-(7-Cyclopropyl-2,7-diazaspiro[4.4]nonan-2-yl)-2-(2-(4-methoxy-2,6-dimethylphenylsulfonyl)-1,2,3,4-tetrahydropyrrolo[1,2-a]pyrazin-1-yl)ethanone] | 69.6 | 58.8
4 | COc1ccc2cc(S(=O)(=O)N3CCn4cccc4C3CC(=O)NC3CCc4cc(CN5CCOCC5)ccc4C3)ccc2c1 (centres unmarked) [Example 118, 2-[2-[(6-Methoxy-naphthalen-2-yl)sulfonyl]-1,2,3,4-tetrahydro-pyrrolo[1,2-a]pyrazin-1-yl]-N-[6-(morpholin-4-yl-methyl)-1,2,3,4-tetrahydro-naphthalen-2-yl]-acetamide] | 100 | 102
5 | CN(Cc1ccc2c(c1)CCC(NC(=O)CC1c3cccn3CCN1S(=O)(=O)c1cccc(C(F)(F)F)c1)C2)C(C)(C)C (centres unmarked) [Example 116, N-[6-[(tert-Butyl-methyl-amino)-methyl]-1,2,3,4-tetrahydro-naphthalen-2-yl]-2-[2-[[3-(trifluoromethyl)phenyl]sulfonyl]-1,2,3,4-tetrahydro-pyrrolo[1,2-a]pyrazin-1-yl]-acetamide] | 99.8 | 102
6 | Cc1ccc(S(=O)(=O)N2CCn3cccc3C2CC(=O)NC2CCc3cc(CNCc4ccccc4)ccc3C2)cc1Cl (centres unmarked) [Example 51, N-[6-[(Benzylamino)-methyl]-1,2,3,4-tetrahydro-naphthalen-2-yl]-2-[2-[(3-chloro-4-methyl-phenyl)sulfonyl]-1,2,3,4-tetrahydro-pyrrolo[1,2-a]pyrazin-1-yl]-acetamide] | 99.5 | 103
7 | Cc1ccc(S(=O)(=O)N2CCn3cccc3C2CC(=O)NC2CCc3cc(CN4C5CCCC4CC5)ccc3C2)cc1Cl (centres unmarked) [Example 71, N-[6-(8-Azabicyclo[3.2.1]octan-8-yl-methyl)-1,2,3,4-tetrahydro-naphthalen-2-yl]-2-[2-[(3-chloro-4-methyl-phenyl)sulfonyl]-1,2,3,4-tetrahydro-pyrrolo[1,2-a]pyrazin-1-yl]-acetamide] | 99.8 | 102
8 | CCC(C)NCc1ccc2c(c1)CCC(NC(=O)CC1c3cccn3CCN1S(=O)(=O)c1ccc(C)cc1)C2 (centres unmarked) [Example 62, N-[6-[(1-Methyl-propylamino)-methyl]-1,2,3,4-tetrahydro-naphthalen-2-yl]-2-[2-(p-tolylsulfonyl)-1,2,3,4-tetrahydro-pyrrolo[1,2-a]pyrazin-1-yl]-acetamide] | 99.2 | 98.4
9 | COc1cc(C)c(S(=O)(=O)N2CCn3cccc3C2COCC(=O)N2[C@@H]3CC[C@H]2C[C@H](Oc2ccncc2)C3)c(C)c1 (stereo partly drawn) [Example 23, 2-((2-(4-Methoxy-2,6-dimethylphenylsulfonyl)-1,2,3,4-tetrahydropyrrolo[1,2-a]pyrazin-1-yl)methoxy)-1-((1R,3S,5S)-3-(pyridin-4-yloxy)-8-azabicyclo[3.2.1]octan-8-yl)ethanone] | 100 | 108
10 | COc1cc(C)c(S(=O)(=O)N2CCn3cccc3C2COCC(=O)N2CCC(N3CC4CC3CN4C)CC2)c(C)c1 (centres unmarked) [Example 40, 2-[[2-[(4-Methoxy-2,6-dimethyl-phenyl)sulfonyl]-1,2,3,4-tetrahydro-pyrrolo[1,2-a]pyrazin-1-yl]-methoxy]-1-[4-(3-methyl-3,6-diazabicyclo[2.2.1]heptan-6-yl)-piperidin-1-yl]-ethanone] | 99.6 | 94.9
11 | Cc1ccc(S(=O)(=O)N2CCn3cccc3C2CC(=O)NC2CCCc3cc(CN4CCN(C)CC4)ccc32)cc1Cl (centres unmarked) [Example 55, 2-[2-[(3-Chloro-4-methyl-phenyl)sulfonyl]-1,2,3,4-tetrahydro-pyrrolo[1,2-a]pyrazin-1-yl]-N-[6-[(4-methyl-piperazin-1-yl)-methyl]-1,2,3,4-tetrahydro-naphthalen-1-yl]-acetamide] | 99.8 | 99.4
12 | O=C(CC1c2cccn2CCN1S(=O)(=O)c1cccc(C(F)(F)F)c1)NC1CCCc2cc(CN3CCCc4ccccc43)ccc21 (centres unmarked) [Example 90, N-[6-(1,2,3,4-Tetrahydro-quinolin-1-yl-methyl)-1,2,3,4-tetrahydro-naphthalen-1-yl]-2-[2-[[3-(trifluoromethyl)phenyl]sulfonyl]-1,2,3,4-tetrahydro-pyrrolo[1,2-a]pyrazin-1-yl]-acetamide] | 54.6 | 51.4
13 | COc1ccc2cc(S(=O)(=O)N3CCn4cccc4C3CC(=O)NC3CCCc4cc(CN5C6CCCC5CC6)ccc43)ccc2c1 (centres unmarked) [Example 95, N-[6-(8-Azabicyclo[3.2.1]octan-8-yl-methyl)-1,2,3,4-tetrahydro-naphthalen-1-yl]-2-[2-[(6-methoxy-naphthalen-2-yl)sulfonyl]-1,2,3,4-tetrahydro-pyrrolo[1,2-a]pyrazin-1-yl]-acetamide] | 99.7 | 99.8
14 | COc1cc(C)c(S(=O)(=O)N2CCn3cccc3C2COCC(=O)N2CCC(Cc3ccncc3)CC2)c(C)c1 (centres unmarked) [Example 35, 2-[[2-[(4-Methoxy-2,6-dimethyl-phenyl)sulfonyl]-1,2,3,4-tetrahydro-pyrrolo[1,2-a]pyrazin-1-yl]-methoxy]-1-[4-(pyridin-4-yl-methyl)-piperidin-1-yl]-ethanone] | 97.7 | 101
15 | O=C(CC1c2cccn2CCN1S(=O)(=O)c1cccc(C(F)(F)F)c1)NC1CCc2cc(CN3CCCC3)ccc2C1 (centres unmarked) [Example 84, N-[6-(Pyrrolidin-1-yl-methyl)-1,2,3,4-tetrahydro-naphthalen-2-yl]-2-[2-[[3-(trifluoromethyl)phenyl]sulfonyl]-1,2,3,4-tetrahydro-pyrrolo[1,2-a]pyrazin-1-yl]-acetamide] | 99.8 | 100
16 | Cc1ccc(S(=O)(=O)N2CCn3cccc3C2CC(=O)NC2CCc3cc(CN4C5CCCC4CC5)ccc3C2)cc1 (centres unmarked) [Example 77, N-[6-(8-Azabicyclo[3.2.1]octan-8-yl-methyl)-1,2,3,4-tetrahydro-naphthalen-2-yl]-2-[2-(p-tolylsulfonyl)-1,2,3,4-tetrahydro-pyrrolo[1,2-a]pyrazin-1-yl]-acetamide] | 99.2 | 103
17 | Cc1ccc(S(=O)(=O)N2CCn3cccc3C2CC(=O)NC2CCCc3cc(CN4CCCc5ccccc54)ccc32)cc1Cl (centres unmarked) [Example 119, 2-[2-[(3-Chloro-4-methyl-phenyl)sulfonyl]-1,2,3,4-tetrahydro-pyrrolo[1,2-a]pyrazin-1-yl]-N-[6-(1,2,3,4-tetrahydro-quinolin-1-yl-methyl)-1,2,3,4-tetrahydro-naphthalen-1-yl]-acetamide] | 23.4 | 62.2
18 | COc1cc(C)c(S(=O)(=O)N2CCn3cccc3C2COCC(=O)NC2CCN(c3ccc(C(F)(F)F)cn3)C2)c(C)c1 (centres unmarked) [Example 33, 2-[[2-[(4-Methoxy-2,6-dimethyl-phenyl)sulfonyl]-1,2,3,4-tetrahydro-pyrrolo[1,2-a]pyrazin-1-yl]-methoxy]-N-[1-[5-(trifluoromethyl)-pyridin-2-yl]-pyrrolidin-3-yl]-acetamide] | 15.7 | 58.1
19 | Cc1ccc(S(=O)(=O)N2CCn3cccc3C2CC(=O)NC2CCCc3cc(CNC(C)(C)C)ccc32)cc1Cl (centres unmarked) [Example 70, N-[6-[(tert-Butylamino)-methyl]-1,2,3,4-tetrahydro-naphthalen-1-yl]-2-[2-[(3-chloro-4-methyl-phenyl)sulfonyl]-1,2,3,4-tetrahydro-pyrrolo[1,2-a]pyrazin-1-yl]-acetamide] | 99.9 | 102
